Experiments:
c-Abl = biological target: T1, c-Abl (Homo sapiens, UniProt P00519); test: Test for activity against c-Abl protein tyrosine kinase (filter binding assay); format: biochemical
T1 construct: The His-tagged kinase domain of c-Abl is cloned and expressed in the baculovirus/Sf9 system; His; made in house; host or cells: baculovirus/Sf9
T1 sequence (P00519 242-493 limits assumed): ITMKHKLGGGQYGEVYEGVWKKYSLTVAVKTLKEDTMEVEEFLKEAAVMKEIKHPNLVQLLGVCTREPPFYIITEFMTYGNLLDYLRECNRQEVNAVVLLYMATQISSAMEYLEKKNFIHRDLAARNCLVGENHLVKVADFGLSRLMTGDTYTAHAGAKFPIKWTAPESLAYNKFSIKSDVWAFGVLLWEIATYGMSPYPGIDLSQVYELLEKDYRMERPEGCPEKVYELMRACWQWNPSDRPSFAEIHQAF
Method: Test for activity against c-Abl protein tyrosine kinase. The test is conducted as a filter binding assay as follows: The His-tagged kinase domain of c-Abl is cloned and expressed in the baculovirus/Sf9 system as described by Bhat et al., J. Biol. Chem. 272, 16170-5 (1997). A protein of 37 kD (c-Abl kinase) is purified by a two-step procedure over a cobalt metal chelate column followed by an anion exchange column with a yield of 1-2 mg/L of Sf9 cells. The purity of the c-Abl kinase is >90% as judged by SDS-PAGE after Coomassie blue staining. The assay contains: c-Abl kinase (50 ng), 20 mM Tris.HCl, pH 7.5, 10 mM MgCl2, 10 μM Na3VO4, 1 mM DTT and 0.06 μCi/assay [γ^33 P]-ATP (5 μM ATP) using 30 μg/mL poly-Ala,Glu,Lys,Tyr-6:2:5:1 (Poly-AEKY, Sigma P1152) in the presence of 1% DMSO, total volume of 30 μL. Reactions are terminated by adding 10 μL of 250 mM EDTA, and 30 μL of the reaction mixture is transferred onto Immobilon-PVDF membrane (Millipore, Bedford, Mass., USA) previously soaked for 5 min with methanol, rinsed with water, then soaked for 5 min with 0.5% H3PO4 and mounted on vacuum manifold with disconnected vacuum source. After spotting all samples, vacuum is connected and each well rinsed with 200 μL 0.5% H3PO4. Membranes are removed and washed on a shaker with 0.5% H3PO4 (4 times) and once with ethanol. Membranes are counted after drying at ambient temperature, mounting in Packard TopCount 96-well frame, and addition of 10 μL/well of Microscint™ (Packard).

[1] = biological target: c-erbB2 tyrosine kinase (HER-2) (Homo sapiens, UniProt P04626); test: Inhibition of c-erbB2 tyrosine kinase (HER-2); format: biochemical; design: dose or concentration left out as unconfirmed
Excerpt: The inhibition of c-erbB2 tyrosine kinase (HER-2) can be measured, for example, in the same way as the inhibition of EGF-R protein kinase, using known procedures.

Bcr-Abl = biological target: T2, Bcr-Abl (Homo sapiens, UniProt P00519); test: Test for activity against Bcr-Abl (phosphorylation ELISA in 32D-bcr/abl cells); format: cell-based, murine; details: 32D cells transfected with p210 Bcr-Abl; ELISA of Bcr-Abl phosphorylation; read-out: bcrabl32DcEL/ Average<32Dp210IC50 [umol l−1]>
T2 construct: host or cells: murine myeloid progenitor cell line 32Dcl3 (32D-bcr/abl); the other entry of the earlier key: BCR (P11274, Breakpoint cluster region protein)
Method: Test for activity against Bcr-Abl. The murine myeloid progenitor cell line 32Dcl3 transfected with the p210 Bcr-Abl expression vector pGDp210Bcr/Abl (32D-bcr/abl) was obtained from J. Griffin (Dana Faber Cancer Institute, Boston, Mass., USA). The cells express the fusion Bcr-Abl protein with a constitutively active Abl kinase and proliferate growth factor independent. The cells are expanded in RPMI 1640 (AMIMED), 10% fetal calf serum, 2 mM glutamine (Gibco) (“complete medium”), and a working stock is prepared by freezing aliquots of 2×10^6 cells per vial in freezing medium (95% FCS, 5% DMSO (SIGMA)). After thawing, the cells are used during maximally 10-12 passages for the experiments.
For cellular assays, compounds are dissolved in DMSO and diluted with complete medium to yield a starting concentration of 10 μM followed by preparation of serial 3-fold dilutions in complete medium. 200,000 32D-Bcr/Abl cells in 50 μL complete medium are seeded per well in 96 well round bottom tissue culture plates. 50 μL per well of serial 3-fold dilutions of the test compound are added to the cells in triplicates. Untreated cells are used as control. The compound is incubated together with the cells for 90 min at 37° C., 5% CO2, followed by centrifugation of the tissue culture plates at 1300 rpm (Beckman GPR centrifuge) and removal of the supernatants by careful aspiration taking care not to remove any of the pelleted cells. The cell pellets are lysed by addition of 150 μL lysis buffer (50 mM Tris/HCl, pH 7.4, 150 mM sodium chloride, 5 mM EDTA, 1 mM EGTA, 1% NP-40, 2 mM sodium ortho-vanadate, 1 mM PMSF, 50 μg/mL aprotinin and 80 μg/mL leupeptin) and either used immediately for the ELISA or stored frozen in the plates at −20° C. until usage.
Black ELISA plates (Packard HTRF-96 black plates) are precoated over night at 4° C. with 50 ng/well of the rabbit polyclonal anti-abl-SH3 domain Ab 06-466 from Upstate in 50 μL PBS. After washing 3 times with 200 μL/well PBS containing 0.05% Tween20 (PBST) and 0.5% TopBlock (Juro), residual protein binding sites are blocked with 200 μL/well PBST, 3% TopBlock for 4 h at room temperature followed by incubation with 50 μL lysates of untreated or compound-treated cells (20 μg total protein per well) for 3-4 h at 4° C. After 3 washings, 50 μL/well anti-phosphotyrosine Ab PY20(AP) labeled with alkaline phosphatase (Zymed) diluted to 0.2 μg/mL in blocking buffer is added and incubated over night (4° C.). For all incubation steps the plates are covered with plate sealers (Costar). Finally, the plates are washed another three times with washing buffer and once with deionized water before addition of 90 μL/well of the AP-substrate CDPStar RTU with Emerald II. The plates, now sealed with Packard TopSeal™-A plate sealers, are incubated for 45 min at room temperature in the dark and luminescence is quantified by measuring counts per second (CPS) with a Packard Top Count Microplate Scintillation Counter (Top Count). The difference between the ELISA-readout (CPS) obtained for with the lysates of the untreated 32D-Bcr/Abl cells and the readout for the assay-background (all components, but without cell lysate) is calculated and taken as 100% reflecting the constitutively phosphorylated Bcr-Abl protein present in these cells. The activity of the compound on the Bcr-Abl kinase activity is expressed as percent reduction of the Bcr-Abl phosphorylation. The values for the IC50 and IC90 are determined from the dose response curves by graphical extrapolation.

Chain of c-erbB2 tyrosine kinase (HER-2) (P04626 23-1255): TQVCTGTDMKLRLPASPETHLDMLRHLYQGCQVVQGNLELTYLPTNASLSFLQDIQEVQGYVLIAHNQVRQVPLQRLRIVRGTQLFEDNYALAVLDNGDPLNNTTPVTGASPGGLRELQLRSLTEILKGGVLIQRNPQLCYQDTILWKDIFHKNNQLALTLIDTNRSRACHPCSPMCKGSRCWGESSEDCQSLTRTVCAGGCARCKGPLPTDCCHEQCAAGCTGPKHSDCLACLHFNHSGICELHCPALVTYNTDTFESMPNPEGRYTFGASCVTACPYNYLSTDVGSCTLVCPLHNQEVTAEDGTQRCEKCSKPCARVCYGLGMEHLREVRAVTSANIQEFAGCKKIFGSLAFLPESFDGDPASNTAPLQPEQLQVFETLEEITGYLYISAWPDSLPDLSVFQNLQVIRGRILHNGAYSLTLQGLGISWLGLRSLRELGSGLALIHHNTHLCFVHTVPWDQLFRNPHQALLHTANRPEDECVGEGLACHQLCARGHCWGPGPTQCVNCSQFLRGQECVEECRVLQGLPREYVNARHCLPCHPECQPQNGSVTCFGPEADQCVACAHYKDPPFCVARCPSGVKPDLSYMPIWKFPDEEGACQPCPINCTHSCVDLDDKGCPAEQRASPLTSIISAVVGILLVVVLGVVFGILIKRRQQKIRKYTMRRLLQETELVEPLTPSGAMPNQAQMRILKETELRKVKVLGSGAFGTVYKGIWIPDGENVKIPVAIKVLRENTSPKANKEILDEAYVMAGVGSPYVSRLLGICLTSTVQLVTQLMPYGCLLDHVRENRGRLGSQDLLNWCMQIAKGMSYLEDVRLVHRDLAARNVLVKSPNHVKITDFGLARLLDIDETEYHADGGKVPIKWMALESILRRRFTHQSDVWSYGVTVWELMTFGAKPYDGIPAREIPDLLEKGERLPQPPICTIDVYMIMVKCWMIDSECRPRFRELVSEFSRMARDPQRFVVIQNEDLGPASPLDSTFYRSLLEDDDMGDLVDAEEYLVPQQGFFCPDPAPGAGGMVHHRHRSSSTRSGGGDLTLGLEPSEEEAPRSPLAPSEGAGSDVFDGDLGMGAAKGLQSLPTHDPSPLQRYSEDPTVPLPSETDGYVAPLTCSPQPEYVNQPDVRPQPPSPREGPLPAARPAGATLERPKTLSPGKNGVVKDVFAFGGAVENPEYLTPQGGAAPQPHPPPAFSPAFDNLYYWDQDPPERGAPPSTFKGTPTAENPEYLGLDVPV
T2 sequence (P00519 28-1130 limits assumed): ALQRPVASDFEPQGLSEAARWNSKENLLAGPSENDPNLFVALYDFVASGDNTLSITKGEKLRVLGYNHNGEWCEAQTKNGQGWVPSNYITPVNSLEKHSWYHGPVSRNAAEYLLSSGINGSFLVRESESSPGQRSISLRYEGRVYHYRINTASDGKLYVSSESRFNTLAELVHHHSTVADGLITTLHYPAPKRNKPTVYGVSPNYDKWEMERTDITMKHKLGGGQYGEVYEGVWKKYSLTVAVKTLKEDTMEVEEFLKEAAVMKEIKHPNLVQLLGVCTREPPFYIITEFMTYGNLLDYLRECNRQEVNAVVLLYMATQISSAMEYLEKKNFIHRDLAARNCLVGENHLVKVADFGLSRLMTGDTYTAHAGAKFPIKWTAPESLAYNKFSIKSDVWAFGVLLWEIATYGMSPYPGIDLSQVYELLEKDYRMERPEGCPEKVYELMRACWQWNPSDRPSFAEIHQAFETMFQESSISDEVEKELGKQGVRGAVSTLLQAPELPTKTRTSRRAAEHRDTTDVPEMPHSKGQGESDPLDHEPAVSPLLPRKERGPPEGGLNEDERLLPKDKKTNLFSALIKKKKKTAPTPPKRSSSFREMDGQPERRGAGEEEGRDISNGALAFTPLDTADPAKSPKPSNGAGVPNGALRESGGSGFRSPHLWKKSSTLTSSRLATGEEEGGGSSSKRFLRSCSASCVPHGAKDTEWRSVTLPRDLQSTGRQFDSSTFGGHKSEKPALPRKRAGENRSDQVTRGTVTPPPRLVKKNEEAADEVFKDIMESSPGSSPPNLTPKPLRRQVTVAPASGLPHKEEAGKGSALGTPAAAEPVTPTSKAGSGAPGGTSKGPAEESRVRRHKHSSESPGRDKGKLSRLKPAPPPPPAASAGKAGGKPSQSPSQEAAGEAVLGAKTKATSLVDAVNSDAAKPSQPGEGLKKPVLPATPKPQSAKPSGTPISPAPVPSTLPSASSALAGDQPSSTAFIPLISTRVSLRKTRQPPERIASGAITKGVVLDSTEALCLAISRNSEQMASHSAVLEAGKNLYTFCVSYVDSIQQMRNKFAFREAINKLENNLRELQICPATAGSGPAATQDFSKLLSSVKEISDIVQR

CN(C)c1ncnc2[nH]c(-c3ccc(C(C)(C)O)cc3)cc12 [Example 34, 2-[4-(4-Dimethylamino-7H-pyrrolo[2,3-d]pyrimidin-6-yl)-phenyl]-propan-2-ol]
IC50 (c-Abl): 21 nM | HER-2/%-inh. [%] [1]: 57% | IC50 (Bcr-Abl): 944 nM

— US7625894B2, “Pyrrolo[2,3-d]Pyrimidines as Protein Tyrosine Kinase Inhibitors” (Novartis AG, priority 2004, dated 2009)
